Measured values taken from ChEMBL document CHEMBL4368935, “Binding of thiazolidinediones to the endoplasmic reticulum protein nutrient-deprivation autophagy factor-1” (Bioorg Med Chem Lett, 2019).
The source made the active and inactive calls. No cut-off for these calls is given here.

Tests used:
[1] = biological target: T1, CDGSH iron-sulfur domain-containing protein 2 (Homo sapiens) (UniProt Q8N5K1); assay: Binding affinity to NAF1 (unknown origin) expressed in human HepG2 cells assessed as inhibition of mitochondrial respiration at 30 uM; assay type: cell-based
T1 sequence (whole entry): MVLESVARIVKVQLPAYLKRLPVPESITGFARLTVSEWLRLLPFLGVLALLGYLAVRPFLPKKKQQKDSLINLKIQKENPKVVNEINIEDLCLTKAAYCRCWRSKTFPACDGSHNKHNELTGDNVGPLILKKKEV

[2] = biological target: T1, CDGSH iron-sulfur domain-containing protein 2 (Homo sapiens); assay: Binding affinity to NAF1 in human HepG2 cells assessed as inhibition of mitochondrial respiration at 30 uM; assay type: cell-based
[3] = biological target: T2, CDGSH iron-sulfur domain-containing protein 2 (Homo sapiens, UniProt Q8N5K1); assay: Binding affinity to recombinant human N-terminal His6-tagged NAF1 expressed in Escherichia coli by scintillation proximity assay
T2 sequence (Q8N5K1 whole entry): T1 sequence (whole entry)

[4] = biological target: T1, CDGSH iron-sulfur domain-containing protein 2 (Homo sapiens); assay: Binding affinity to NAF1 (unknown origin) expressed in human HepG2 cells assessed as increase in mitochondrial respiration at 30 uM relative to wild-type cells; assay type: cell-based

inhibition [1] | inhibition [2] | IC50 [3] [µM] | SMILES | Activity [4] [%]
Active | Active | 29.8 | CC(C)(C)c1cc(CC2SC(=O)N=C2O)cc(C(C)(C)C)c1O (stereo not given) | 
Active | Active | 2.29 | CN(CCOc1ccc(CC2SC(=O)NC2=O)cc1)c1ccccn1 (stereo not given) [ROSIGLITAZONE] | 

SMILES | inhibition [1] | inhibition [2] | IC50 [3] [µM] | Activity [4] [%]
CCc1ccc(CCOc2ccc(CC3SC(=O)NC3=O)cc2)nc1 (stereo not given) [PIOGLITAZONE] | Active | Active | 4.8 | 13
